Patent publication US10738028B2, “Spiro three-membered ring, spiro five-membered ring peptide deformylase inhibitor and use thereof in antibacteria and anti-tumor” (priority 2016, dated 2020)

Legend:
Assay type in all cases: cell-based
[1] = tested on: Streptococcus pneoumoniae (SPN); assay: MIC, two-fold agar dilution (CLSI), clinical isolates
Procedure, shortened: (§1)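 Samples are serially diluted two-fold in agar following CLSI guidance. Plates are then inoculated with the tested strains. The lowest inhibiting concentration is recorded as MIC.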

[2] = tested on: Moraxella catarrhalis (BCA); assay: as above
Procedure, shortened: as §1

[3] = tested on: methicillin-resistant Staphylococcus epidermidis (MRSE); assay: as above
Procedure, shortened: as §1

[4] = tested on: methicillin-resistant Staphylococcus aureus (MRSA); assay: as above
Procedure, shortened: as §1

[5] = tested on: Enterococcus faecalis (EFA); assay: as above
Procedure, shortened: as §1

[6] = tested on: Enterococcus faecium (EFM); assay: as above
Procedure, shortened: as §1

[7] = tested on: methicillin-sensitive Staphylococcus epidermidis (MSSE); assay: as above
Procedure, shortened: as §1

[8] = tested on: Escherichia coli (including ESBLs, non-ESBLs); assay: as above
Procedure, shortened: as §1

[9] = tested on: methicillin-sensitive Staphylococcus aureus (MSSA); assay: as above
Procedure, shortened: as §1

[10] = tested on: HCT-116 colorectal cancer cell line; assay: CCK-8 proliferation inhibition; settings: Homo sapiens, HCT-116, 72 h, concentration of 30 μM; 72 hours; CCK-8; read-out: HCT116 inhibition rate/%
Procedure, shortened: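 Cells seeded at 2000 cells/well, cultured overnight at 37 °C, 5% CO2, then exposed to compound (DMSO; control 1‰ DMSO) for 72 h in McCoy's 5A with 10% newborn bovine serum. Viability read with 1:10 diluted CCK-8.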

Compound: CCCC[C@H](CC(=O)NO)C(=O)N1CC2(CC2)C[C@H]1C(=O)Nc1ncccc1F [Example 49, (S)—N-(3-fluoropyridin-2-yl)-5-((R)-2-(2-(hydroxyamino)-2-oxoethyl)hexanoyl)-5-azaspiro[2.4]heptane-6-amide]
- Anti-bacterial activity (MIC), strain SPN 16-2 ([1]; clinical isolate SPN 16-2): 4 µg/mL
- Anti-bacterial activity (MIC), strain SPN 16-4 ([1]; clinical isolate SPN 16-4): 4 µg/mL
- Anti-bacterial activity (MIC), strain BCA 14-1 ([2]; clinical isolate BCA 14-1): > 32 µg/mL
- Anti-bacterial activity (MIC), strain BCA 14-4 ([2]; clinical isolate BCA 14-4): > 32 µg/mL
- Anti-bacterial activity (MIC), strain BCA 14-5 ([2]; clinical isolate BCA 14-5): 4 µg/mL
- Anti-bacterial activity (MIC), strain BCA 14-6 ([2]; clinical isolate BCA 14-6): > 32 µg/mL
- Anti-bacterial activity (MIC), strain BCA 14-7 ([2]; clinical isolate BCA 14-7): > 32 µg/mL
- Anti-bacterial activity (MIC), strain BCA 14-8 ([2]; clinical isolate BCA 14-8): > 32 µg/mL
- Anti-bacterial activity (MIC), strain BCA 14-10 ([2]; clinical isolate BCA 14-10): > 32 µg/mL
- Anti-bacterial activity (MIC), strain MRSE 15-1 ([3]; clinical isolate MRSE 15-1): > 32 µg/mL
- Anti-bacterial activity (MIC), strain MRSE 15-2 ([3]; clinical isolate MRSE 15-2): > 32 µg/mL
- Anti-bacterial activity (MIC), strain MRSE 15-3 ([3]; clinical isolate MRSE 15-3): > 32 µg/mL
- Anti-bacterial activity (MIC), strain MRSE 15-7 ([3]; clinical isolate MRSE 15-7): > 32 µg/mL
- Anti-bacterial activity (MIC), strain MRSA 15-1 ([4]; clinical isolate MRSA 15-1): 8 µg/mL
- Anti-bacterial activity (MIC), strain MRSA 15-3 ([4]; clinical isolate MRSA 15-3): 16 µg/mL
- Anti-bacterial activity (MIC), strain MRSA 15-4 ([4]; clinical isolate MRSA 15-4): 16 µg/mL
- Anti-bacterial activity (MIC), strain EFA 15-1 ([5]; clinical isolate EFA 15-1): > 32 µg/mL
- Anti-bacterial activity (MIC), strain EFA 15-2 ([5]; clinical isolate EFA 15-2): > 32 µg/mL
- Anti-bacterial activity (MIC), strain EFA 15-3 ([5]; clinical isolate EFA 15-3): > 32 µg/mL
- Anti-bacterial activity (MIC), strain EFA 15-4 ([5]; clinical isolate EFA 15-4): > 32 µg/mL
- Anti-bacterial activity (MIC), strain EFA 15-5 ([5]; clinical isolate EFA 15-5): > 32 µg/mL
- Anti-bacterial activity (MIC), strain EFA 15-6 ([5]; clinical isolate EFA 15-6): > 32 µg/mL
- Anti-bacterial activity (MIC), strain EFA 15-9 ([5]; clinical isolate EFA 15-9): > 32 µg/mL
- Anti-bacterial activity (MIC), strain EFM 15-1 ([6]; clinical isolate EFM 15-1): > 32 µg/mL
- Anti-bacterial activity (MIC), strain EFM 15-2 ([6]; clinical isolate EFM 15-2): > 32 µg/mL
- Anti-bacterial activity (MIC), strain EFM 15-3 ([6]; clinical isolate EFM 15-3): > 32 µg/mL
- Anti-bacterial activity (MIC), strain EFM 15-4 ([6]; clinical isolate EFM 15-4): > 32 µg/mL
- Anti-bacterial activity (MIC), strain EFM 15-5 ([6]; clinical isolate EFM 15-5): 2 µg/mL
- Anti-bacterial activity (MIC), strain EFM 15-6 ([6]; clinical isolate EFM 15-6): 2 µg/mL
- Anti-bacterial activity (MIC), strain MSSE 15-3 ([7]; clinical isolate MSSE 15-3): > 32 µg/mL
- Anti-bacterial activity (MIC), strain MSSE 15-4 ([7]; clinical isolate MSSE 15-4): > 32 µg/mL
- Anti-bacterial activity (MIC), strain MSSE 15-5 ([7]; clinical isolate MSSE 15-5): > 32 µg/mL
- Anti-bacterial activity (MIC), strain MSSE 15-6 ([7]; clinical isolate MSSE 15-6): > 32 µg/mL
- Anti-bacterial activity (MIC), strain ECO+ 15-1 ([8]; clinical isolate ECO+ 15-1): > 32 µg/mL
- Anti-bacterial activity (MIC), strain ECO+ 15-2 ([8]; clinical isolate ECO+ 15-2): > 32 µg/mL
- Anti-bacterial activity (MIC), strain ECO+ 15-3 ([8]; clinical isolate ECO+ 15-3): > 32 µg/mL
- Anti-bacterial activity (MIC), strain ECO+ 15-4 ([8]; clinical isolate ECO+ 15-4): > 32 µg/mL
- Anti-bacterial activity (MIC), strain ECO− 15-1 ([8]; clinical isolate ECO− 15-1): > 32 µg/mL
- Anti-bacterial activity (MIC), strain ECO− 15-2 ([8]; clinical isolate ECO− 15-2): > 32 µg/mL
- Anti-bacterial activity (MIC), strain ECO− 15-3 ([8]; clinical isolate ECO− 15-3): > 32 µg/mL
- Anti-bacterial activity (MIC), strain ECO− 15-4 ([8]; clinical isolate ECO− 15-4): > 32 µg/mL
- Anti-bacterial activity (MIC), strain MSSA 15-3 ([9]; clinical isolate MSSA 15-3): 16 µg/mL
- Anti-bacterial activity (MIC), strain MSSA 15-4 ([9]; clinical isolate MSSA 15-4): 16 µg/mL
- Anti-bacterial activity (MIC), strain MSSA 15-5 ([9]; clinical isolate MSSA 15-5): > 32 µg/mL
- Anti-bacterial activity (MIC), strain MSSA 15-6 ([9]; clinical isolate MSSA 15-6): > 32 µg/mL
- inhibition at 30 µM [10]: 8%
